These results are taken from patent publication US5350748A, “3-thio or amino substituted-benzo[b]thiophene-2-carboxamides and 3-oxygen, thio, or amino substituted-benzofuran-2-carboxamides as inhibitors of cell adhesion” (Warner-Lambert Company, priority 1993, dated 1994).

The test system of this assay is human neutrophil adhesion to TNF-α-stimulated human umbilical vein endothelial cells (HUVEC). The assay can be described thus: Modified method: inhibition of human neutrophil adhesion to TNF-α-stimulated human umbilical vein endothelial cells (calcein-labeled neutrophils). It is filed as cell-based. To be noted: for inhibition at 33 µM / inhibition at 100 µM: neutrophils labeled with calcein, read-out: Adhesion ECA, % inhibition. On the procedure: The 3-thiol, thioether, amino, alkylamino, or arylamino-benzo[b]thiophene-2-carboxamides and 3-alkoxy, aryloxy, thiol, thioether, amino, alkylamino, or arylamino-benzofuran-2-carboxamides have been shown in an in vitro assay to prevent the adhesion of neutrophils to human umbilical vein endothelial cells (HUVECS) stimulated with TNF-α. In this assay, HUVECS are stimulated with TNF-α for 4 hours, after which the cells are assayed for their ability to adhere to human neutrophils labeled with either ^51 Cr or calcein, a fluorescent dye. The details of this assay are described in the DETAILED DESCRIPTION.
Neutrophils were isolated from anticoagulant-treated venous blood obtained from healthy human volunteers according to the method of Ferrante and Thong [J. Immunol. Methods 24, 389-93 (1978)]. The cell preparations consisted of greater than 98% neutrophils.
Modified Method for Determining the Inhibition of Human Neutrophil Adhesion to TNF-α, IL-1α, and LPS Stimulated Human Umbilical Vein Endothelial Cells
The previous assay using ^51 Cr labeled human neutrophils has been modified. The neutrophils are now labeled with the fluorescent dye calcein. The current method allows for quantification of neutrophil adherence by fluorescence spectroscopy.
Second passage HUVEC (Clonetics Corporation, San Diego, Calif., CC-2617) were seeded into Coring (Corning glass works, Corning, N.Y.) 96-well cell culture plates at approximately 5×10^3 cells/well and grown to confluency in supplemented endothelial basal medium (EBM, MCDB-131, Clonetics, 10 ng/mL EGF, 1 μg/mL hydrocortisone, 0.4% bovine brain extract, 5% Fetal Bovine Serum). One day prior to running the assay, typically 3 days postseeding, the cultures were refed with 0.2 mL/well supplemented EBM (S-EBM).
Test compounds were prepared as 10 mL stock solutions at a concentration of 1.0 mM. The compounds were initially solubilized in 0.1 mL DMSO followed by the addition of 9.9 mL S-EBM. The drug preparations were then diluted in one step to a concentration of 66.6 μM or 200 μM. Solubilizations and dilutions were performed in polystyrene containers.
Recombinant human tumor necrosis factor-α (TNF, Genzyme, Boston, Mass., code TNF-H) was prepared at 400 U/mL in S-EBM. Stock TNF was prepared to 20,000 U/mL in Delbecco's phosphate-buffered saline (PBS, Gibco, Grand Island N.Y.) plus 0.1% BSA and stored at -70° C. HUVEC were washed one time with 0.2 mL warm unsupplemented EBM and then stimulated for 4hours at 37° C. with 200 U/mL TNF in the presence of 33.3 μM or 100 μM test compound. This was accomplished by adding 0.1 mL of 400 U/mL TNF and 0.1 mL 66.6 μM or 0.1 mL of 200 μM test compound. These additions were done slowly as to not disrupt the HUVEC monolayer. Each compound was tested in six wells. Unstimulated (vehicle control) and TNF-stimulated without test compound treatments were also run in each plate.
One hour prior to adding the neutrophils (isolated as previously described) to the HUVEC, neutrophils (5×10^6 /mL) were labeled for 30 minutes at 37° C. with 5 μM calcine-AM (Molecular Probes, Eugene, Oreg.) in Hanks' balanced salt solution plus 0.45% BSA. Stock calcein was prepared to 5mM in anhydrous DMSO and stored desiccated at -20° C. At the end of the incubation the cells were washed two times in cold HBSS and resuspended to a final concentration of 1×10^6 cells/mL in unsupplemented EBM.
At the end of the 4-hour stimulation and immediately prior to the addition of the neutrophils to the HUVEC monolayer, the plates were washed with 0.2 ml warm unsupplemented EBM to remove TNF and drug. Neutrophils (1×10^5 cells) were slowly added to each of the treated wells and incubated for 30 minutes at 37° C. At the end of the incubation the plates were washed two times with 0.2 mL warm unsupplemented EBM followed by a final addition of 0.1 mL for plate scanning.
The fluorescence was determined using a Millipore Cytofluor 2300 system (excitation=480, emission=530, sensitivity=4). […]

Regarding `COc1ccc2sc(C(N)=O)c(S(=O)(=O)C(C)C)c2c1` [Example 3, 5-Methoxy-3-[(1-methylethyl)sulfonyl]benzo[b]thiophene-2-carboxamide], the inhibition at 33 µM was 32%.

Regarding `COc1ccc2sc(C(N)=O)c(SCc3ccccc3)c2c1` [Example 6, 5-Methoxy-3-[(phenylmethyl)thio]benzo[b]thiophene-2-carboxamide], the inhibition at 33 µM is 35%. On the same count and under the same terms, next, `COC(=O)c1ccc(NC(=O)c2sc3ccc(OC)cc3c2SC(C)C)cc1` [Example 7, Methyl 4-[[[5-methoxy-3-[(1-methylethyl)thio]benzo[b]thien-2yl]carbonyl]amino]benzoate]: 19%. On the same count and under the same terms, next, `COc1ccc2sc(C(=O)Nc3ccc(C(=O)O)cc3)c(SC(C)C)c2c1` [Example 8, 4-[[[5-Methoxy-3[(1-methylethyl)thio]benzo[b]thien-2yl]carbonyl]amino]benzoic acid]: 13%; `COc1ccc2sc(C(N)=O)c(S)c2c1` [Example 9, 3-Mercapto-5-methoxybenzo[b]thiophene-2-carboxamide]: 15%; `COC(=O)CCSc1c(C(N)=O)sc2ccc(OC)cc12` [Example 10, Methyl 3-[[2-(aminocarbonyl)-5-methoxybenzo[b]thien-3-yl]thio]propanoate]: 55%. Same read-out and setting: next, `COc1ccc2sc(C(N)=O)c(SCCN3CCOCC3)c2c1` [Example 11, 5-Methoxy-3-[[2-(4-morpholinyl)ethyl]thio]benzo[b]thiophene-2-carboxamide]: 27%; `CC(C)Sc1c(C(N)=O)sc2cccc(Cl)c12` [Example 12, 4-Chloro-3-[(1-methylethyl)thio]benzo[b]thiophene-2-carboxamide]: 34%. Regarding `COC(=O)CCCCSc1c(C(N)=O)sc2ccc(OC)cc12` [Example 13], the inhibition at 33 µM was 21%. Still for that read-out and setting: next, `COc1ccc2sc(C(N)=O)c(SCCCCC(=O)O)c2c1` [Example 14]: 37%.

For the molecule `COc1ccc2sc(C(N)=O)c(SCC(=O)O)c2c1` [Example 15, [[2-(Aminocarbonyl)-5-methoxybenzo[b]thien-3-yl]thio]acetic acid], the inhibition at 33 µM is 7%. On the same count and under the same terms, next, `COC(=O)c1ccc(CSc2c(C(N)=O)sc3ccc(OC)cc23)cc1` [Example 16, Methyl 4-[[[2-(aminocarbonyl)-5-methoxybenzo[b]thien-3-yl]thio]methyl]benzoate]: 10%; `CC(C)Sc1c(C(N)=O)sc2ccc(OCc3ccccc3)cc12` [Example 17, 3-[(1-Methylethyl)thio]-5-(phenylmethoxy)benzo[b]thiophene-2-carboxamide]: 24%; `CN(C)c1c(C(N)=O)sc2cccc(Cl)c12` [Example 18, 4-Chloro-3-(dimethylamino)benzo[b]thiophene-2-carboxamide]: 10%. On to `COc1cccc2sc(C(N)=O)c(N)c12` [Example 19, 3-Amino-4-methoxybenzo[b]thiophene-2-carboxamide], for which the inhibition at 33 µM was 30%. Same read-out and setting: next, `COc1cccc2sc(C(N)=O)c(N(C)C)c12` [Example 20, 3-(Dimethylamino)-4-methoxybenzo[b]thiophene-2carboxamide]: 63%; `CSc1ccc2sc(C(N)=O)c(N(C)C)c2c1` [Example 21, 3-Dimethylamino-5-(methylthio)benzo[b]thiophene-2-carboxamide]: 53%. On to `CNc1c(C(N)=O)[s+]([O-])c2ccc(OC)cc12` (stereo not shown) [Example 22, 5-Methoxy-3-(methylamino)benzo[b]thiophene-2-carboxamide-1-oxide], for which the inhibition at 100 µM is 16%. Same read-out and setting: next, `COc1ccc2c(c1)c(NC(C)C)c(C(N)=O)[s+]2[O-]` (stereo not shown) [Example 23, 5-Methoxy-3-[(1-methylethyl)amino]benzo[b]thiophene-2-carboxamide-1-oxide]: 7%. On the same count and under the same terms, next, `COc1ccc2c(c1)c(Nc1ccccc1)c(C(N)=O)[s+]2[O-]` (stereo not shown) [Example 24, 5-Methoxy-3-(phenylamino)benzo[b]thiophene-2-carboxamide-1-oxide]: 21%. Take `NC(=O)c1oc2ccccc2c1N` [Example 25, 3-Amino-2-benzofurancarboxamide]: the inhibition at 33 µM was 21%. Still for that read-out and setting: next, `NC(=O)c1oc2cccc(Cl)c2c1N` [Example 26, 3-Amino-4-chloro-2-benzofurancarboxamide]: 24%.

As for `COc1ccc2oc(C(N)=O)c(OC(C)C)c2c1` [Example 27, 5-Methoxy-3-(1-methylethoxy)-2-benzofurancarboxamide], the IC50 (footnote a, neutrophil label not given, IC50 by linear regression from 33.3, 10.0, 3.3 and 1.0 μM, read-out: Adhesion ECA, IC50) is 13 µM. Take `CC(C)Oc1c(C(N)=O)oc2ccc(Cl)cc12` [Example 28, 5-Chloro-3-(1-methylethoxy)-2-benzofurancarboxamide]: the inhibition at 100 µM was 52%.

For the molecule `CC(C)Oc1c(C(N)=O)oc2ccccc12` [Example 29, 3-(1-Methylethoxy)-2-benzofurancarboxamide], the inhibition at 100 µM is 20%.

Consider `COc1ccc2oc(C(=O)NCc3ccccc3)c(OC(C)C)c2c1` [Example 30, 5-Methoxy-3-(1-methylethoxy)-N-(phenylmethyl)-2-benzofurancarboxamide], for which the inhibition at 100 µM is 42%. For the molecule `CC(C)Oc1c(C(=O)Nc2ccccc2)oc2ccc(Cl)cc12` [Example 31, 5-Chloro-3-(1-methylethoxy)-N-phenyl-2-benzofurancarboxamide], the inhibition at 100 µM is 11%. The same measure, in the same setting: next, `CC(C)Oc1c(C(=O)NCc2ccccc2)oc2ccc(Cl)cc12` [Example 32, 5-Chloro-3-(1-methylethoxy)-N-(phenylmethyl)-2-benzofurancarboxamide]: 95%; `CC(C)NC(=O)c1oc2ccccc2c1OC(C)C` [Example 33, 3-(1-Methylethoxy)-N-(1-methylethyl)-2-benzofurancarboxamide]: 15%. Still for that read-out and setting: next, `CC(C)Oc1c(C(=O)Nc2ccccc2)oc2ccccc12` [Example 34, 3-(1-Methylethoxy)-N-phenyl-2-benzofurancarboxamide]: 70%; `CC(C)Oc1c(C(=O)NCc2ccccc2)oc2ccccc12` [Example 35, 3-(1-Methylethoxy)-N-(phenylmethyl)-2-benzofurancarboxamide]: 61%; `COc1ccc2oc(C(N)=O)c(OCc3ccccc3)c2c1` [Example 36, 5-Methoxy-3-(phenylmethoxy)-2-benzofurancarboxamide]: 4%. On the same count and under the same terms, next, `CC(C)Oc1c(C(N)=O)oc2ccc(-c3ccccc3)cc12` [Example 37, 3-(1-Methylethoxy)-5-phenyl-2-benzofurancarboxamide]: 68%. As for `CC(C)Oc1c(C(N)=O)oc2ccc(O)cc12` [Example 38, 5-Hydroxy-3-(1-methylethoxy)-2-benzofurancarboxamide], the inhibition at 33 µM was 67%.

By inhibition is commonly meant the drop in the measured response relative to a control, in per cent. As a reminder, the IC50 is the midpoint of a concentration-inhibition curve.
